According to patent US5861387A, “Controlled release systems and low dose androgens” (Endorecherche Inc., priority 1995, dated 1999):

What was measured:
antibody 144A = experiment: MPA radioimmunoassay, specificity of antibody 144A; type: binding, rabbit
Text: Antibody 144A was raised in rabbits against 17-hydroxyprogesterone-3-0-carboxymethyloxime-BSA. The labeled steroid used in the radioimmunoassay (RIA) was methyl-17α-hydroxyprogesterone acetate, 6α-[1,2-^3 H(N)]- obtained from NEN (CAT NO: NET 480) while the reference preparation was medroxyprogesterone acetate (MPA) obtained from Steraloids. The assay buffer used was 0.1% gelatin in 0.1M sodium phosphate, 0.15M sodium chloride, 0.1% sodium azide, pH 7.2. The extraction solvent mixture was ethyl ether-acetone (9:1, v:v) [EEA] while the LH-20 chromatography solvent mixture was iso-octane: toluene: methanol (90:5:5;v:v:v) [IOTH].
One ml of plasma was extracted twice with 5 ml of EEA. The extracts were evaporated to dryness with nitrogen and the remaining residue was dissolved in one ml of IOTH. The extracts were then subjected to LH-20 chromatography on […] columns (Coming CAT NO: 05 722A) filled with 2 g of LH-20 (Pharmacia). The gel was washed with 30 ml of IOTH before addition of one ml of sample and elution with IOTH. The first 6 ml were discarded. The following 10, 16.5 and 27.5 ml of eluent were fraction I (progesterone), II (MPA) and III (17-LH-progesterone), respectively. Fraction II was evaporated to dryness and reconstituted in 1.5 ml of assay buffer.
To each 12 x 75 mm borosilicate test tube was added: 0.2 ml containing 25,000 DPM of tritiated steroid, 0.5 ml of reference preparation ranging from 5 to 5000 pg/tube or 0.5 ml of extracted sample fraction II, 0.2 ml of antiserum 144A diluted 1/5000 or 0.2 ml of assay buffer to account for non specific binding. The tubes were then incubated overnight at 4° C. Then, 0.2 ml 2% charcoal Norit-A, 0.2% Dextran T-70 diluted in water was added. The tubes were then shaken gently and, after 10 min, they were centrifuged at 2000 x g for 10 min. The supernatant was mixed with 8 ml of Formula-989 (NEN: NEF-989) and the radioactivity was counted in a β-counter.

breast cancer [1] = details: in vivo; cited from earlier work
[2] = test system: human breast cancer ZR-75-1 cells, androgen receptor; experiment: Androgenic (androgen receptor) activity in ZR-75-1 cells: cell growth and GCDFP-15/GCDFP-24 secretion; type: cell-based; details: for androgenic activity: ZR-75-1 cells, low concentrations
Method: Maintenance of stock cultures The ZR-75-1 human breast cancer cell line can be obtained from the American Type Culture Collection (Rockville, Md.). The cells are routinely cultured in phenol red-free RPMI 1640 medium supplemented with 10 nM E2, 15 mM Hepes, 2 mM L-glutamine, 1 mM sodium pyruvate, 100 IU penicillin per ml, 100 μg streptomycin sulfate per ml, and 10% (v/v) fetal bovine serum (FBS), in a water-saturated atmosphere of 95% air: 5% CO2 at 37° C.
Stock cultures in their logarithmic growth phase are harvested with 0.05% trypsin/0.02% EDTA (w/v) in Hanks' balanced salts solution and resuspended in E2- and phenol red-free RPMI 1640 medium containing 5% (v/v) dextran-coated charcoal (DCC)-treated FBS and 500 ng of bovine insulin per ml, but otherwise supplemented as described above for maintenance of stock cultures. Cells were plated in 24-well Linbro culture plates (Flow Laboratories) at a final density of 0.5-4.0×10^4 cells/well.
Fourty-eight hours after plating, fresh SD medium containing the appropriate concentrations of steroids are added. […] The incubation media are replaced every other day and cells are harvested by trypsinization after 12 days of treatment, unless otherwise indicated. Cell number can be determined with a Coulter Counter.
Calculations and statistical analyses Apparent IC50 values are calculated using an iterative least squares regression (Rodbard, Endocrinology 94:1427-1437,1974), while apparent inhibition constants (Ki values) are calculated according to Cheng and Prusoff (Biochem. Pharmacol. 22: 3099-3108,1973).
In addition to inhibition of cell growth, the secretion of two glycoproteins, namely gross cystic disease fluid protein-15 (GCDFP-15) and GCDFP-24 is markedly stimulated by androgens (Simard et al., Mol. Endocrinol. 3: 694-702, 1989; Simard et al., Endocrinology 126: 3223-3231, 1990).
To assist in determining the activity of the potential compounds on the various steroid receptors, androgen, glucocorticoid, progesterone and estrogen-receptor-mediated activities of synthetic progestins and anabolic steroids can be measured in ZR-75-1 human breast cancer cells using cell growth as well as GCDFP-15 and GCDFP-24 release as parameters of response (Poulin and Labrie, Cancer Res. 46: 4933-4937, 1986; Poulin et al., Breast Cancer Res. Treatm. 12: 213-225, 1988; Poulin et al., Breast Cancer Res. Treatm. 13: 161-172, 1989; Poulin et al., Breast Cancer Res. Treatm. 13: 265-276, 1989; Simard et al., Mol. Endocrinol. 3: 694-702, 1989; Simard et al., Endocrinology 126: 3223-3231, 1990).
In order to analyze the interactions of synthetic progestins or anabolic steroids with the androgen receptor (AR) and glucocorticoid receptor (GR) in their inhibitory action on cell growth, one takes advantage of the additivity of the anti-proliferative effects of androgens and glucocorticoids in this cell line (Poulin et al., Breast Cancer Res. Treatm. 12: 213-225, 1988; Hatton and Labrie, F., unpublished data). […] On the other hand, the effect of a putative androgen can similarly be measured following saturation of GR by dexamethasone (DEX). […] Thus, in the presence of excess androgen (1 μM DMT) in the presence of E2 and insulin, glucocorticoid effects can be assessed with precision and with no interference by the other receptors. The same applies to study of the role of AR when the cells are incubated in the presence of excess glucocorticoid (3 μM DEX), in the presence of E2 and insulin.

masculinizing activity = details: low blood concentrations; cited from earlier work
[3] = test system: DMBA-induced mammary carcinoma; details: cited from earlier work
breast cancer [4] = details: cited from earlier work
bone = details: cited from earlier work
breast cancer [5] = details: cited from earlier work; remark: listed apart in the source
[6] = E2-treated ovariectomized rats, with or without DHT

In the case of `C[C@]12CC[C@@H](O)C[C@@H]1CC[C@@H]1[C@@H]2CC[C@]2(C)[C@@H](O)CC[C@@H]12` [3α-diol], the “cross-reactivity with antibody 144A” value (antibody 144A) is reported as “less than 0.1%”.

For `CC(=O)[C@@]1(O)CC[C@H]2[C@@H]3CC=C4C[C@@H](O)CC[C@]4(C)[C@H]3CC[C@@]21C` [17-OH-pregnenolone], the “cross-reactivity with antibody 144A” value (antibody 144A) was “less than 0.1%”.

In the case of `C[C@H](O)[C@H]1CC[C@H]2[C@@H]3CCC4=CC(=O)CC[C@]4(C)[C@H]3CC[C@]12C` [20α-OH-Prog], the “cross-reactivity with antibody 144A” value (antibody 144A) is reported as “less than 0.1%”.

For `CC/C(=C(/CC)c1ccc(O)cc1)c1ccc(O)cc1` [DES], the “objective remissions in breast cancer” value (breast cancer [1]) is listed as “effective in producing objective remissions”.

In the case of `C[C@]12CCC(=O)C[C@@H]1CC[C@@H]1[C@@H]2CC[C@]2(C)[C@@H](O)CC[C@@H]12` [DHT, 5α-dihydrotestosterone], the “concentration exerting maximal inhibitory effect on the AR” value ([2]; detailed kinetic studies, ZR-75-1) is given as 1 µM and the masculinizing activity (masculinizing activity) is given as “considerable masculinizing activity even at low blood concentrations”.

In the case of `C[C@]12CC[C@@H]3c4ccc(O)cc4CC[C@H]3[C@@H]1CC[C@@H]2O` [E2, 17β-estradiol], the “number of new tumors per rat” value ([3]; 28-day observation period, E2-treated animals, with or without DHT) is listed as 1.5±0.3 per rat, the “complete responses (disappearance of palpable tumors)” value [3, 6] is listed as 11.5% and the progressing tumors [3, 6] is listed as 69.2%. The “cross-reactivity with antibody 144A” value (antibody 144A) was “less than 0.1%”.

For `CC(C)C(=O)Nc1ccc([N+](=O)[O-])c(C(F)(F)F)c1` [Flutamide], the “effect on DHT action” value ([3]; simultaneous treatment with DHT) is listed as “completely prevented DHT action”.

For `C[C@]12CC[C@H]3[C@@H](CCC4=CC(=O)CC[C@@H]43)[C@@H]1CC[C@@H]2O` [Nor-testosterone], the androgenic activity [2] was “possess androgenic activity at low concentrations”.

In the case of `CC/C(=C(\c1ccccc1)c1ccc(OCCN(C)C)cc1)c1ccccc1` [Tamoxifen], the “median time from onset of therapy to treatment failure” value (breast cancer [4]; in vivo) is listed as 64 days, the non-responders (breast cancer [4]; in vivo) is listed as 50% and the “partial response (PR)” value (breast cancer [4]; in vivo) is listed as 15%. For the same molecule, the survival (breast cancer [4]; tendency for improved survival) was 330 days.

With `C[C@]12CCC(=O)C=C1CC[C@@H]1[C@@H]2CC[C@]2(C)C(=O)CC[C@@H]12` [androstenedione] the “cross-reactivity with antibody 144A” value (antibody 144A) was “less than 0.1%”.

With `C[C@H]1CC2=CC(=O)CC[C@]2(C)[C@H]2CC[C@@]3(C)[C@@H](CC[C@]3(C)O)[C@H]12` [calusterone, 7β,17α-dimethyltestosterone] the androgenic activity [2] was “possess androgenic activity at low concentrations”.

For `CC(=O)O[C@]1(C(C)=O)CC[C@H]2[C@@H]3C=C(Cl)C4=CC(=O)CC[C@]4(C)[C@H]3CC[C@@]21C` [chlormadinone acetate], the androgenic activity [2] was “possess androgenic activity at low concentrations”.

In the case of `C[C@]12CCC(=O)C=C1CC[C@@H]1[C@@H]2[C@@H](O)C[C@@]2(C)[C@H]1CC[C@]2(O)C(=O)CO` [cortisol], the “cross-reactivity with antibody 144A” value (antibody 144A) is reported as “less than 0.1%”.

In the case of `C#C[C@]1(O)CC[C@H]2[C@@H]3CCC4=Cc5oncc5C[C@]4(C)[C@H]3CC[C@@]21C` [danazol], the androgenic activity [2] is reported as “possess androgenic activity at low concentrations”.

In the case of `C[C@@H]1C[C@@]2(C)[C@@H](CC[C@@H]3[C@@H]2CC[C@]2(C)[C@@H](O)CC[C@@H]32)CC1=O` [dromostanolone], the androgenic activity [2] is reported as “possess androgenic activity at low concentrations”.

For `C[C@]12CC[C@@H]3c4ccc(O)cc4CC[C@H]3[C@@H]1CCC2=O` [estrone], the “cross-reactivity with antibody 144A” value (antibody 144A) was “less than 0.1%”.

In the case of `C#C[C@]1(O)CC[C@H]2[C@@H]3CCC4=CC(=O)CC[C@]4(C)[C@H]3CC[C@@]21C` [ethisterone], the androgenic activity [2] is reported as “possess androgenic activity at low concentrations”.

In the case of `C[C@]12C=CC(=O)C=C1CC[C@@H]1[C@@H]2CC[C@@]2(C)[C@H]1CC[C@]2(C)O` [methandrostanolone], the “effect on postmenopausal osteoporosis (total body calcium)” value (bone; 24-26 months, double-blind) is listed as “positive and relatively long-term” and the androgenic activity [2] is listed as “possess androgenic activity at low concentrations”.

In the case of `CCCCCCC(=O)O[C@H]1CC[C@H]2[C@@H]3CC[C@H]4CC(=O)C=C(C)[C@]4(C)[C@H]3CC[C@]12C` [methonolone enanthate], the response rate (breast cancer [5]; 13 of 27 patients) is given as 48%, the “median duration of survival, non-responders” value (breast cancer [5]; non-responder group) is given as 7.5 months and the “median duration of survival, responders” value (breast cancer [5]; responders) is given as 27 months.

For `C[C@]12COC(=O)C[C@@H]1CC[C@@H]1[C@@H]2CC[C@@]2(C)[C@H]1CC[C@]2(C)O` [oxandrolone], the androgenic activity [2] was “possess androgenic activity at low concentrations”.

With `C[C@]12C/C(=C/O)C(=O)C[C@@H]1CC[C@@H]1[C@@H]2CC[C@@]2(C)[C@H]1CC[C@]2(C)O` [oxymetholone] the androgenic activity [2] was “possess androgenic activity at low concentrations”.

For `CC(=O)[C@H]1CC[C@H]2[C@@H]3CC=C4C[C@@H](O)CC[C@]4(C)[C@H]3CC[C@]12C` [pregnenolone], the “cross-reactivity with antibody 144A” value (antibody 144A) was “less than 0.1%”.

With `CC(=O)[C@H]1CC[C@H]2[C@@H]3CCC4=CC(=O)CC[C@]4(C)[C@H]3CC[C@]12C` [progesterone] the “cross-reactivity with antibody 144A” value (antibody 144A) was “less than 0.1%”.

In the case of `C[C@]12Cc3c[nH]nc3C[C@@H]1CC[C@@H]1[C@@H]2CC[C@@]2(C)[C@H]1CC[C@]2(C)O` [stanozolol], the bone mass (bone; in vivo) is given as “increase in total bone mass”, the side effects (bone; randomized study in postmenopausal women) is given as “side effects were recorded in the majority of patients” and the androgenic activity [2] is given as “possess androgenic activity at low concentrations”.

In the case of `CCC(=O)O[C@H]1CC[C@H]2[C@@H]3CCC4=CC(=O)CC[C@]4(C)[C@H]3CC[C@]12C` [testosterone propionate], the “effect in pre- and post-menopausal women” value (breast cancer [1]) is listed as “beneficial effects in both pre- and post-menopausal women”, the “objective remissions in breast cancer” value (breast cancer [1]) is listed as “effective in producing objective remissions” and the “remission rate and duration, quality of life and survival” value (breast cancer [1]) is listed as “improved remission rate and duration, quality of life and survival”.

In the case of Vitamin D, the “bone resorption, osteoporotic women” value (bone; in vivo) is listed as “only reduced bone resorption”.
